Test results from paper PMC7497679, “Structure-based design, synthesis, and evaluation of the biological activity of novel phosphoroorganic small molecule IAP antagonists” (Investigational New Drugs, 2020).
Read-outs that look alike come from different tables or passages of the source. Square brackets hold non-standard residues; d marks the D form. Ends that are not written are not given here. Chg = N[C@H](C(=O)O)C1CCCCC1; NMeA = CN[C@@H](C)C(=O)O

Columns and labels:
MCF-7 = assay: Antiproliferative activity, SRB method; type: cell-based, human; settings: 72 h; for inhibition at 10 µM: Homo sapiens, MCF7, 10 µM, read-out: mean proliferation inhibition at highest concentration used, MCF-7
Description: (§1) MDA-MB-231 (human breast cancer), MCF10A (human, nontumorigenic mammary gland epithelial cells), A549 (human nonsmall-cell lung cancer), UMUC-3 (human bladder cancer) and LoVo (human colon cancer) cell lines were obtained from the American Type Culture Collection (ATCC; Rockville, Maryland, USA). The MCF-7 cell line (human breast cancer) was obtained from the European Collection of Cell Cultures (ECACC; Salisbury, UK). All cell lines were maintained at the Hirszfeld Institute of Immunology and Experimental Therapy (HIIET), Wrocław, Poland. MDA-MB-231 cells were cultured in RPMI1640 medium (Thermo Fisher Scientific, Warszawa, Poland) supplemented with 2 mM L-glutamine, 1 mM sodium pyruvate, and 10% fetal bovine serum (all from Sigma-Aldrich, Poznań, Poland). The MCF10A cell line was cultured in Ham’s F12 medium with glutamine (Corning) supplemented with 5% (v/v) fetal bovine serum (FBS), 5% (v/v) horse serum, 10 µg/mL insulin, 0.05 µg/mL cholera toxin, 0.5 µg/mL hydrocortisone, and 20 ng/mL hEGF (all from Sigma-Aldrich). A549 and LoVo cells were cultured in a 1:1 (v/v) mixture of RPMI1640 and Opti-MEM (both from HIIET) supplemented with 5% (v/v) FBS and 2 mM L-glutamine. The UMUC-3 cell line was cultured in high glucose DMEM (Thermo Fisher Scientific) supplemented with 10% FBS and 2 mM Lglutamine. The MCF-7 line was cultured in Eagle’s minimal essential medium (EMEM; Thermo Fisher Scientific) supplemented with 10% (v/v) FBS, 2 mM L-glutamine, 1% (v/v) nonessential amino acids, and 8 µg/mL insulin (all from Sigma-Aldrich). All culture media contained 100 µg/mL streptomycin (Sigma-Aldrich) and 100 U/mL penicillin (Polfa Tarchomin SA, Warszawa, Poland). The cells were grown at 37 °C in a humid atmosphere saturated with 5% CO2.
(§2) Antiproliferative activity was assessed in six cell lines utilizing the sulforhodamine B (SRB) method. Briefly, cells were seeded in 96-well plates (Sarstedt, Warszawa, Poland) at a density of 5 × 10^3 cells/well, and after overnight incubation, the cells were exposed to compounds at various concentrations. After 72 h, the plates were fixed with 50% (v/v) TCA (all from Sigma-Aldrich), washed with tap water, and the precipitated proteins were labeled with 0.1% (w/v) SRB solution in 1% (v/v) AcOH. Next, the plates were washed with 1% (v/v) AcOH, and the remaining SRB dye was solubilized with 10 mM unbuffered TRIS solution. The absorbance was measured using a Biotek Hybrid H4 reader (BioTek Instruments, VT, USA) at 540 nm. Crude results were analyzed using a previously described method, and the results are expressed as the IC50 (compound concentration that reduced cell growth by 50%) compared to the vehicletreated control (0.1% (v/v) DMSO). The samples were analyzed in triplicate, and each experiment was repeated at least three times.

MCF-10A = assay: Antiproliferative activity, SRB method; type: cell-based, human; settings: 72 h; for inhibition at 10 µM: Homo sapiens, MCF-10A, read-out: mean proliferation inhibition at highest concentration used, MCF-10A
Description: as §1, §2

A549 = assay: Antiproliferative activity, SRB method; type: cell-based, human; settings: 72 h; for inhibition at 10 µM: Homo sapiens, A549, 10 µM, read-out: mean proliferation inhibition at highest concentration used, A549
Description: as §1, §2

MDA-MB-231 = assay: Antiproliferative activity, SRB method; type: cell-based, human; settings: read-out: IC50 ± SD (n = 3) MDA-MB-231
Description: as §1, §2

LoVo = assay: Antiproliferative activity, SRB method; type: cell-based, human; settings: 72 h; for inhibition at 10 µM: Homo sapiens, LoVo, read-out: mean proliferation inhibition at highest concentration used, LoVo
Description: as §1, §2

UMUC-3 = assay: Antiproliferative activity, SRB method; type: cell-based, human; settings: 72 h; for inhibition at 10 µM: Homo sapiens, UMUC3, 10 µM, read-out: mean proliferation inhibition at highest concentration used, UMUC-3
Description: as §1, §2

XIAP BIR3 domain = target: T1, XIAP BIR3 domain (Homo sapiens, UniProt P98170); assay: Fluorescence polarization inhibition (competition) assay; type: binding; settings: for inhibition at 50 µM: 0.5 h, antagonist 50 µM, inhibition of protein-probe interaction; for Ki / EC50: XIAP BIR3 50 nM, fluorescent probe 4 2 nM; for interaction with the XIAP BIR3 domain (in words): fluorescence polarization
T1 construct: fluorescent probe 4 and the XIAP BIR3 domain (Sino Biological, Beijing, China) were used for all measurements; purchased Sino Biological, Beijing, China
T1 sequence (P98170 252-356 limits assumed): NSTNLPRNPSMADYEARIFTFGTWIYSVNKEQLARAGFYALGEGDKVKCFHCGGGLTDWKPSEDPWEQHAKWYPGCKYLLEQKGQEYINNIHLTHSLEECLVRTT
Protocol: The fluorescence polarization assay was performed at r.t. in Corning 384-well black, polystyrene flat bottom plates (Corning, NY, USA) on a Synergy H4 Hybrid Reader (BioTek, Bad Friedrichshall, Germany). For fluorescence polarization measurements, (milipolarization units, mP) 484/20 nm excitation and 528/20 nm emission filters were selected. Phosphate buffer (pH 7.5) supplemented with γ-globulin (100 µg/mL) and NaN3 (0.02% w/v), fluorescent probe 4 and the XIAP BIR3 domain (Sino Biological, Beijing, China) were used for all measurements. All experiments were performed in duplicate. The obtained fluorescence polarization assay data were analyzed with Prism 5.0 Software (GraphPad Software, San Diego, ca.).
After a 15 min incubation at r.t., fluorescent probe 4 (2 nM) was added. The values were measured 30 min after the moment the probe was added. The assay was performed in phosphate buffer with a final DMSO concentration of 1.4% (v/v). […] In order to evaluate the quality and precision of the performed screening assay, we determined the Z´ factor as described by Zhang et al.. The obtained fluorescence polarization values were used to determine the percent inhibition, which was plotted as a function of the protein concentration. The EC50 and Ki values were calculated with GraphPad software (log(agonist) vs. response (variable slope) model) in combination with the web tool developed by Nikolovska-Coleska et al..
Fluorescence polarization inhibition assay and data analysis for 41m and 42m compounds was performed as described in the Material and Methods section of the manuscript. Briefly, 50 nM solution of the BIR3 XIAP protein in polarization buffer was added into phosphoroorganic compound solution (from 50 μM to 0.0537 nM). After 15 min incubation at r.t. the fluorescent probe 4 (2 nM) was added.
The values were read after 30 minutes from the moment the probe was added. The obtained fluorescence polarization values were used to determine the percentage of inhibition which was plotted as a function of the protein concentration (Supplementary Figure S4).
(1 picture or pasted object on this page, not shown here)

[NH2][Pt]([NH2])([Cl])[Cl] [CDDP, cisplatin, reference compound]
IC50 (MCF-7; read-out: IC50 ± SD (n = 3) MCF-7): 5.36 ± 1.8 µM | IC50 (MCF-10A; read-out: IC50 ± SD (n = 3) MCF-10A): 6.76 ± 1.2 µM | IC50 (A549; read-out: IC50 ± SD (n = 3) A549): 1.6 ± 0.4 µM | IC50 (MDA-MB-231; 72 h): 22.1 ± 5.26 µM | IC50 (LoVo; read-out: IC50 ± SD (n = 3) LoVo): 3.9 ± 1.3 µM | IC50 (UMUC-3; read-out: IC50 ± SD (n = 3) UMUC-3): 3.73 ± 0.63 µM

CN[C@@H](C)C(=O)N[C@H](C(=O)N1CCC[C@H]1C(=O)NC(Cc1ccccc1)P(=O)(c1ccccc1)c1ccccc1)C(C)C (stereo partly shown) [Compound 13]
inhibition at 50 µM (XIAP BIR3 domain): 100% | Ki (XIAP BIR3 domain): 0.75 µM | EC50 (XIAP BIR3 domain; read-out: EC50): 1.53 µM | EC50 (XIAP BIR3 domain; read-out: log EC50 (converted)): 1.53 µM | inhibition at 10 µM (MCF-7): 22% | inhibition at 10 µM (MCF-10A): 5% | inhibition at 10 µM (A549): 2% | IC50 (MDA-MB-231; Homo sapiens, MDA-MB-231, 72 h): 3.39 ± 0.42 µM | inhibition at 10 µM (LoVo): 6% | inhibition at 10 µM (UMUC-3): 6%

CN[C@@H](C)C(=O)N[C@H](C(=O)N1CCC[C@H]1C(=O)NC(Cc1ccccc1)P(=O)(c1ccccc1)c1ccccc1)C1CCCCC1 (stereo partly shown) [Compound 14]
inhibition at 50 µM (XIAP BIR3 domain): 100% | Ki (XIAP BIR3 domain): 0.64 µM | EC50 (XIAP BIR3 domain; read-out: EC50): 1.31 µM | EC50 (XIAP BIR3 domain; read-out: log EC50 (converted)): 1.31 µM | inhibition at 10 µM (MCF-7): 20% | inhibition at 10 µM (MCF-10A): 1% | inhibition at 10 µM (A549): 5% | IC50 (MDA-MB-231; Homo sapiens, MDA-MB-231, 72 h): 2.72 ± 0.69 µM | inhibition at 10 µM (LoVo): 7% | inhibition at 10 µM (UMUC-3): 8%

CN[C@@H](C)C(=O)N[C@H](C(=O)N1CCC[C@H]1C(=O)NC(CC(C)C)P(=O)(Oc1ccccc1)Oc1ccccc1)C(C)C (stereo partly shown) [Compound 37]
inhibition at 50 µM (XIAP BIR3 domain): 67.4% | Ki (XIAP BIR3 domain): 14 µM | EC50 (XIAP BIR3 domain; read-out: EC50): 28.1 µM | EC50 (XIAP BIR3 domain; read-out: log EC50 (converted)): 28.1 µM

CN[C@@H](C)C(=O)N[C@H](C(=O)N1CCC[C@H]1C(=O)NC(CC(C)C)P(=O)(Oc1ccccc1)Oc1ccccc1)C1CCCCC1 (stereo partly shown) [Compound 38]
inhibition at 50 µM (XIAP BIR3 domain): 84.2% | Ki (XIAP BIR3 domain): 5.25 µM | EC50 (XIAP BIR3 domain; read-out: EC50): 10.6 µM | EC50 (XIAP BIR3 domain; read-out: log EC50 (converted)): 10.6 µM

CN[C@@H](C)C(=O)N[C@H](C(=O)N1CCC[C@H]1C(=O)NC(CCSC)P(=O)(Oc1ccccc1)Oc1ccccc1)C(C)C (stereo partly shown) [Compound 39]
inhibition at 50 µM (XIAP BIR3 domain): 65.8% | Ki (XIAP BIR3 domain): 13 µM | EC50 (XIAP BIR3 domain; read-out: EC50): 26.2 µM | EC50 (XIAP BIR3 domain; read-out: log EC50 (converted)): 26.2 µM

CN[C@@H](C)C(=O)N[C@H](C(=O)N1CCC[C@H]1C(=O)NC(CCSC)P(=O)(Oc1ccccc1)Oc1ccccc1)C1CCCCC1 (stereo partly drawn) [Compound 40, diphenyl (1-((S)-1-((S)-2-cyclohexyl-2-((S)-2-(methylamino)propanamido)acetyl)pyrrolidine-2-carboxamido)-3-(methylthio)propyl)phosphonate]
inhibition at 50 µM (XIAP BIR3 domain): 73.8% | Ki (XIAP BIR3 domain): 13 µM | EC50 (XIAP BIR3 domain; read-out: EC50): 26.3 µM | EC50 (XIAP BIR3 domain; read-out: log EC50 (converted)): 26.3 µM

CN[C@@H](C)C(=O)N[C@H](C(=O)N1CCC[C@H]1C(=O)NC(CCc1ccccc1)P(=O)(Oc1ccccc1)Oc1ccccc1)C(C)C (stereo partly shown) [Compound 43]
inhibition at 50 µM (XIAP BIR3 domain): 85.4% | EC50 (XIAP BIR3 domain; read-out: EC50): 17.2 µM | EC50 (XIAP BIR3 domain; read-out: log EC50 (converted)): 17.2 µM

CN[C@@H](C)C(=O)N[C@H](C(=O)N1CCC[C@H]1C(=O)NC(CCc1ccccc1)P(=O)(Oc1ccccc1)Oc1ccccc1)C1CCCCC1 (stereo partly drawn) [Compound 44, diphenyl (1-((S)-1-((S)-2-cyclohexyl-2-((S)-2-(methylamino)propanamido)acetyl)pyrrolidine-2-carboxamido)-3-phenylpropyl)phosphonate]
inhibition at 50 µM (XIAP BIR3 domain): 86.5% | Ki (XIAP BIR3 domain): 7.57 µM | EC50 (XIAP BIR3 domain; read-out: EC50): 15.3 µM | EC50 (XIAP BIR3 domain; read-out: log EC50 (converted)): 15.3 µM

CN[C@@H](C)C(=O)N[C@H](C(=O)N1CCC[C@H]1C(=O)Nc1snnc1-c1ccccc1)C1CCCCC1 [GDC-0152, reference compound]
EC50 (XIAP BIR3 domain; read-out: EC50): 0.01 µM | inhibition at 10 µM (MCF-7): 18% | inhibition at 10 µM (MCF-10A): 1% | inhibition at 10 µM (A549): 13% | IC50 (MDA-MB-231; Homo sapiens, MDA-MB-231, 72 h): 0.88 ± 0.21 µM | inhibition at 10 µM (LoVo): 9% | inhibition at 10 µM (UMUC-3): 13%

CN[C@@H](C)C(=O)N[C@H](C(=O)N1CCC[C@H]1c1nc(C(=O)c2ccc(F)cc2)cs1)C1CCCCC1 [LCL-161, reference compound]
inhibition at 10 µM (MCF-7): 19% | inhibition at 10 µM (MCF-10A): 2% | inhibition at 10 µM (A549): 11% | IC50 (MDA-MB-231; Homo sapiens, MDA-MB-231, 72 h): 0.76 ± 0.23 µM | inhibition at 10 µM (LoVo): 26% | inhibition at 10 µM (UMUC-3): 16%

[NMeA]-Val-Pro-OH [Compound 1]
interaction with the XIAP BIR3 domain (in words) (XIAP BIR3 domain): did not interact with the XIAP BIR3 domain at a significant level

[NMeA]-[Chg]-Pro-OH [Compound 2]
interaction with the XIAP BIR3 domain (in words) (XIAP BIR3 domain): did not interact with the XIAP BIR3 domain at a significant level
